The source of these data is patent US8119602B2, “Administration of HCV protease inhibitors in combination with food to improve bioavailability” (Schering Corporation, priority 2005, dated 2012).

The nature of data set [1]: Single dose, randomized fed vs. fasted study of the effect of food on bioavailability (pharmacokinetics). The class given is in vivo, healthy subjects. Particulars: for Relative bioavailability, AUC (tf) Ratio Estimate / Relative bioavailability, AUC(l) Ratio Estimate / Relative bioavailability, Cmax Ratio Estimate: fed vs fasted; for increase of Cmax relative to fasted state / increase of mean AUCs relative to fasted state: based on ratio estimates; for half-life: read-out: t½ (mean) (converted). Here is the method: A single dose, randomized, two-treatment (fed vs. fasted) study was conducted to assess the effect of food on bioavailability of a compound of the present invention (SCH 503034 or Compound Ia). A single oral dose of 600 mg. of compound of Formula Ia was administered to two groups of healthy subjects. Group A received the dose after an overnight 10-hour fast; Group B received the dose about twenty minutes after consuming a high fat breakfast of 850 calories having 53.8 g fat (57% of calories from fat) or low fat breakfast of 451 calories. Blood samples were collected immediately prior to dosing (time zero) and at times 0.5, 1, 1.5, 2, 2.5, 3, 4, 6, 8, 12, 24, 36, 48, and 72 hours post dose. Results of measurement of mean maximum concentration (Cmax) of compound of Formula Ia in serum in ng/ml are shown in Table 1 and FIG. 1 (graph of mean plasma concentration of the compound versus Time). Calculations of AUC(tf) (area under the curve at time final), AUC(I) (area under the curve extrapolated to infinity), t½ (time at which one-half of the compound has disappeared from the blood), Tmax (time at which maximum serum concentration is achieved), CL/F (clearance divided by bioavailability), and Vd/F (volume of distribution divided by bioavailability) are made according to standard formulas known to one skilled in the art of drug metabolism and pharmacokintics.

Data set [2] is described as follows: Serum levels after two weeks of 400 mg bid or tid dosing. The class given is in vivo, healthy subjects. Particulars: 400 mg tid for two weeks; day 14. The method, then: Healthy subjects were dosed with two regimens of 400 mg. of a compound of Formula 1a, twice per day (bid) or three times per day (tid) for a period of two weeks. Blood samples were taken on day 14 in the morning at time zero (pre-dose) and at 12 hours post-dose (for the bid regimen) or 8 hours post-dose (for the tid regimen). As shown in the box plots, with tid dosing a metabolism effect is observed. Serum levels of the drug are higher at time zero, 8 hours after the previous evening dose, as compared to serum levels of the drug when measured 8 hours following the morning dose.

Where [3] appears, read: human, serum, po, 600 mg, single oral dose 600 mg, fasted, balanced data.
Setting [4] is: human, serum, po, 600 mg, single oral dose 600 mg, fed (high fat diet), balanced data.
Where [5] appears, read: human, serum, po, 600 mg, single oral dose 600 mg, fed (non fat diet), balanced data.

For orientation: Vd/F means the volume of distribution divided by bioavailability.

Each structure is given as a SMILES string. Where two headings read alike, the source gives them in different places.

Turning to `CC(C)(C)NC(=O)N[C@H](C(=O)N1C[C@H]2[C@@H]([C@H]1C(=O)NC(CC1CCC1)C(=O)C(N)=O)C2(C)C)C(C)(C)C` (mixture of isomers) [SCH 503034], the “Relative bioavailability, AUC (tf) Ratio Estimate” value was 317% in data set [1] (compare B/A, balanced data) and 182% in data set [1] (compare C/A, balanced data). In addition, the “Relative bioavailability, AUC(l) Ratio Estimate” value in data set [1] (compare B/A, balanced data) is given as 276%; in data set [1] (compare C/A, balanced data), 167%. Besides, the “Relative bioavailability, Cmax Ratio Estimate” value in data set [1] (compare B/A, balanced data) is 223%; in data set [1] (compare C/A, balanced data), 129%. Also, the absorption lag time was 0.5 h in data set [1] (fed state with high fat diet, in 8 of the 12 subjects who completed all three periods) and 0.5 h in data set [1] (fed state with non fat diet, 7 subjects). Moreover, the “increase of Cmax relative to fasted state” value in data set [1] (high fat diet) is on record as 123%; in data set [1] (non fat diet), 29%. Further, the “increase of mean AUCs relative to fasted state” value in data set [1] (high fat diet) is listed as “over 200%”; in data set [1] (non fat diet), “about 100%”. For the same molecule, the Cmax in data set [1] (setting [3]) was determined as 0.502 µg/mL; in data set [1] (setting [4]), 1.15 µg/mL; in data set [1] (setting [5]), 0.639 µg/mL. The Vd/F was determined as 4580 L in data set [1] (setting [3]), 418 L in data set [1] (setting [4]) and 1140 L in data set [1] (setting [5]). The AUC in data set [1] (human, serum, po, 600 mg, single oral dose 600 mg, fasted, balanced data, read-out: AUC(l) (mean)) stood at 1.63 µg·h/mL; in data set [1] (human, serum, po, 600 mg, single oral dose 600 mg, fasted, balanced data, read-out: AUC(tf) (mean)) it was 1.56 µg·h/mL; in data set [1] (human, serum, po, 600 mg, single oral dose 600 mg, fed (high fat diet), balanced data, read-out: AUC(l) (mean)), 4.44 µg·h/mL; in data set [1] (human, serum, po, 600 mg, single oral dose 600 mg, fed (high fat diet), balanced data, read-out: AUC(tf) (mean)), 5.09 µg·h/mL; in data set [1] (human, serum, po, 600 mg, single oral dose 600 mg, fed (non fat diet), balanced data, read-out: AUC(l) (mean)), 2.75 µg·h/mL; in data set [1] (human, serum, po, 600 mg, single oral dose 600 mg, fed (non fat diet), balanced data, read-out: AUC(tf) (mean)), 3.04 µg·h/mL. Also, the Tmax in data set [1] (human, serum, po, 600 mg, single oral dose 600 mg, fasted, balanced data, read-out: Tmax, median (range)) came out at 1.5 h. For the same molecule, the values for the half-life in data set [1] (setting [3]), in data set [1] (setting [4]) and in data set [1] (setting [5]) were 7.61 h, 2.01 h and 3.2 h, respectively. Moreover, the “CL/F (mean)” value in data set [1] (single oral dose 600 mg, fasted, balanced data) was 407 L/h; in data set [1] (single oral dose 600 mg, fed (high fat diet), balanced data), 144.0 L/h; in data set [1] (single oral dose 600 mg, fed (non fat diet), balanced data), 243 L/h. In addition, in data set [1] (single oral dose 600 mg, fed state), the “rate of absorption in the fed state (vs fasted)” value is “more slowly”.

On to `CC(C)(C)NC(=O)N[C@H](C(=O)N1C[C@H]2[C@@H]([C@H]1C(=O)NC(CC1CCC1)C(=O)C(N)=O)C2(C)C)C(C)(C)C` (stereo partly drawn) [compound of Formula 1a, (1R,5S)-N-[3-Amino-1-(Cyclobutylmethyl)-2,3-Dioxopropyl]-3-[2(S)-[[[(1,1-Dimethylethyl)Amino]Carbonyl]Amino]-3,3-Dimethyl-1-Oxobutyl]-6,6-Dimethyl-3-Azabicyclo[3.1.0]Hexan-2(S)-Carboxamide], for which the “serum levels at time zero (8 hours after the previous evening dose) compared to 8 hours following the morning dose” value in data set [2] is recorded as “higher”.
